Assay results taken from patent US8309685B2 (Celgene Avilomics Research, Inc., priority 2007, dated 2012).
Where two headings read alike, the source gives them in different places.

Assays:
[1] = tested on: HCV RNA replicon in cell line ET (luc-ubi-neo/ET), human Huh7 hepatoma; test: Method A: HCV RNA replicon antiviral assay (luciferase, ET cell line); type: cell-based, Hepatitis C virus; details: Hepatitis C virus, Huh-7
Outline: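 Six 3-fold dilutions of each drug were tested on subconfluent luc-ubi-neo/ET Huh7 replicon cells (5×10^3/well) for 72 hr at 37 °C. EC50 and EC90 came from luciferase read-out, IC50 from CytoTox-1 cell number, and […]; interferon alpha-2b was run each time as control.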

[2] = target: T1, A156T mutant of the HCV NS3/4A 1b protease enzyme (Hepatitis C virus genotype 1b, UniProt P26663, A1182T); test: HCV Protease FRET Assay (IC50_APP), A156T mutant; type: biochemical
T1 construct: 10× stocks of NS3/4A protease enzyme from Bioenza (Mountain View, Calif.); purchased Bioenza (Mountain View, Calif.)

[3] = target: T2, wild type HCV NS3/4A 1b protease enzyme (Hepatitis C virus genotype 1b, UniProt P26663); test: HCV Protease FRET Assay (IC50_APP), wild type; type: biochemical; details: read-out: IC50_APP, WT; apparent IC50, wild type NS3/4A 1b
T2 construct: 10× stocks of NS3/4A protease enzyme from Bioenza (Mountain View, Calif.); purchased Bioenza (Mountain View, Calif.)

[4] = target: T1, A156T mutant of the HCV NS3/4A 1b protease enzyme; test: HCV Protease FRET Assay (IC50), A156T mutant; type: biochemical
[5] = target: T3, D168A mutant of the HCV NS3/4A 1b protease enzyme (Hepatitis C virus genotype 1b, UniProt P26663, D1194A); test: HCV Protease FRET Assay (IC50_APP), D168A mutant; type: biochemical
T3 construct: 10× stocks of NS3/4A protease enzyme from Bioenza (Mountain View, Calif.); purchased Bioenza (Mountain View, Calif.)

[6] = target: T2, wild type HCV NS3/4A 1b protease enzyme; test: biochemical; type: biochemical; details: read-out: Inhibition, WT; WT enzyme, FRET assay
[7] = target: T3, D168A mutant of the HCV NS3/4A 1b protease enzyme; test: HCV Protease FRET Assay (IC50), D168A mutant; type: biochemical
[8] = Replicon, assay of Example 22, 72 hr, read-out: Inhibition, Replicon
[9] = assay described in Example 22, read-out: Replicon (IC50)
[10] = apparent IC50, A156T mutant; read-out: IC50_APP, HCV A156T
[11] = read-out: Inhibition, HCV A156T, A156T enzyme, FRET assay
[12] = apparent IC50, D168A mutant; read-out: IC50_APP, HCV D168A
[13] = read-out: Inhibition, HCV D168A, D168A enzyme, FRET assay

Row | Compound | IC50 [1, 8] [nM] | IC50 ([1]; WT, cell-based assay, methods of the Examples, read-out: Comparative IC50 Values, WT) [nM] | IC50 [1, 9] [nM] | IC50 [2, 10] [nM] | IC50 [3] [nM] | IC50 ([4]; read-out: Comparative IC50 Values, A156T, biochemical assay) [nM] | IC50 [4, 11] [nM] | IC50 [5, 12] [nM] | IC50 [6] [nM] | IC50 ([7]; read-out: Comparative IC50 Values, D168A, biochemical assay) [nM] | IC50 [7, 13] [nM] | IC90 ([1]; assay described in Example 22) [nM] | IC50 ([2]; read-out: IC50_APP, HCV A156T; apparent IC50, A156T mutant) [nM] | IC50 ([5]; read-out: IC50_APP, HCV D168A; apparent IC50, D168A mutant) [nM]
1 | C=CC(=O)NC[C@H](NC(=O)OC(C)(C)C)C(=O)N1C[C@H](Oc2cc(-c3ccccc3)nc3cc(OC)ccc23)C[C@H]1C(=O)N[C@]1(C(=O)NS(=O)(=O)c2ccccc2)C[C@H]1C=C [Compound I-3, N-[(1,1-dimethylethoxy)carbonyl]-3-[(2-propenoyl)amino]-L-alanyl-(4R)-4-[(7-methoxy-2-phenyl-4-quinolinyl)oxy]-L-prolyl-1-amino-2-ethenyl-N-(phenylsulfonyl)-(1R,2S)-cyclopropanecarboxamide] | 10 to 100 | 20 | 10 to 100 | 1000 to 10000 | < 10 | 18 | 10 to 100 | 1000 to 10000 | < 10 | 45 | 10 to 100 |  |  | 
2 | C=C[C@@H]1C[C@]1(NC(=O)[C@@H]1C[C@@H](Oc2cc(-c3ccccc3)nc3cc(OC)ccc23)CN1C(=O)[C@H](CNC(=O)CCl)NC(=O)OC(C)(C)C)C(=O)NS(=O)(=O)c1ccccc1 [Compound I-7, N-[(1,1-dimethylethoxy)carbonyl]-3-[(chloroacetyl)amino]-L-alanyl-(4R)-4-[(7-methoxy-2-phenyl-4-quinolinyl)oxy]-L-prolyl-1-amino-2-ethenyl-N-(phenylsulfonyl)-(1R,2S)-cyclopropanecarboxamide] | 10 to 100 |  | 10 to 100 |  | < 10 |  | 10 to 100 |  | < 10 |  | 10 to 100 | 100 to 1000 | 100 to 1000 | 100 to 1000
3 | C=CC(=O)NCC(=O)N1C[C@H](Oc2cc(-c3ccccc3)nc3cc(OC)ccc23)C[C@H]1C(=O)N[C@]1(C(=O)NS(=O)(=O)c2ccccc2)C[C@H]1C=C [Compound I-27, (2S,4R)-1-(2-acrylamidoacetyl)-4-(7-methoxy-2-phenylquinolin-4-yloxy)-N-((1R,2S)-1-(phenylsulfonylcarbamoyl)-2-vinylcyclopropyl)pyrrolidine-2-carboxamide] | 10 to 100 |  | 100 to 1000 | 100 to 1000 | < 10 |  | 10 to 100 | 100 to 1000 | < 10 |  | 10 to 100 | 100 to 1000 |  | 
